Results: ChEMBL document CHEMBL5537180, “Discovery of Novel Aminobutanoic Acid-Based ASCT2 Inhibitors for the Treatment of Non-Small-Cell Lung Cancer” (J Med Chem, 2024)
The source made the active and inactive calls. No cut-off for these calls is given here.

Assays:
[1] = target: T1, Sodium-coupled neutral amino acid symporter 1 (Homo sapiens) (UniProt Q9H2H9); assay: Inhibition of SNAT1 (unknown origin) overexpressed in HEK293 cells assessed as reduction in [13C]-Gln uptake preincubated for 5 mins followed by substrate addition and measured after 15 mins; assay type: cell-based; settings: time 20.0 min
T1 sequence (whole entry): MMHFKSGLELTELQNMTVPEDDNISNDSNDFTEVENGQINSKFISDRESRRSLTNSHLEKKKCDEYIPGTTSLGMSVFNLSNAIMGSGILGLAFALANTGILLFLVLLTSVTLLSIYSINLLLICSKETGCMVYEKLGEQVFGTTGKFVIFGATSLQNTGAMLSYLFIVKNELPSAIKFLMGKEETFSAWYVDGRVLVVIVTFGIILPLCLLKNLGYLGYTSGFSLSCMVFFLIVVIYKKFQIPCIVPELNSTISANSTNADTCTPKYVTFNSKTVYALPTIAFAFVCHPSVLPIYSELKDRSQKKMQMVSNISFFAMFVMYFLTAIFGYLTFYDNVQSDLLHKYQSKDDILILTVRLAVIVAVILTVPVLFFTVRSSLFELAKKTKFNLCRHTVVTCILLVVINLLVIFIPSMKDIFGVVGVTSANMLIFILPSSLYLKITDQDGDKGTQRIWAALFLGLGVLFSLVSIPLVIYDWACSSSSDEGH

A549 [2] = assay: Induction of apoptosis in human A549 cells assessed as caspase 3 activation at 5 to 10 uM incubated for 24 hrs by Western blot analysis; assay type: functional, cell-based; settings: dose 5-10 µM
A549 [3] = assay: Inhibition of Gln uptake in human A549 cells assessed as reduction in citrate level incubated for 24 hrs by LC-MS/MS analysis; assay type: functional, cell-based
NSCLC [4] = assay: Antiproliferative activity against human NSCLC cells cultured as HCC827 organoids assessed as cell viability incubated for 96 hrs by Celltiter-glo viability assay; assay type: functional, cell-based
A549 [5] = assay: Antiproliferative activity against human A549 cells assessed as reduction in cell viability after 72 hrs by MTT assay; assay type: functional, cell-based; settings: A549, 72 h
[6] = Tmax in Sprague-Dawley rat at 10 mg/kg, ip incubated for 24 hrs by LC-MS/MS analysis; assay type: ADME, organism-based; settings: in vivo
A549 [7] = assay: Induction of autophagy in human A549 cells assessed as downregulation of p62 level at 5 to 10 uM measured after 24 hrs by Western blot analysis; assay type: functional, cell-based; settings: dose 5-10 µM
[8] = Toxicity in BALB/c nude mouse assessed as effect on liver at 25 to 50 mg/kg, ip measured after 3 weeks by H and E staining based analysis; assay type: organism-based; settings: in vivo, 504 h, dose 25-50 mg/kg
[9] = target: T2, Neutral amino acid transporter B(0) (Homo sapiens, UniProt Q15758); assay: Inhibition of ASCT2 in human A549 cells assessed as reduction in glutamine uptake preincubated for 5 mins followed by substrate addition and measured after 15 mins; assay type: cell-based
T2 sequence (Q15758 whole entry): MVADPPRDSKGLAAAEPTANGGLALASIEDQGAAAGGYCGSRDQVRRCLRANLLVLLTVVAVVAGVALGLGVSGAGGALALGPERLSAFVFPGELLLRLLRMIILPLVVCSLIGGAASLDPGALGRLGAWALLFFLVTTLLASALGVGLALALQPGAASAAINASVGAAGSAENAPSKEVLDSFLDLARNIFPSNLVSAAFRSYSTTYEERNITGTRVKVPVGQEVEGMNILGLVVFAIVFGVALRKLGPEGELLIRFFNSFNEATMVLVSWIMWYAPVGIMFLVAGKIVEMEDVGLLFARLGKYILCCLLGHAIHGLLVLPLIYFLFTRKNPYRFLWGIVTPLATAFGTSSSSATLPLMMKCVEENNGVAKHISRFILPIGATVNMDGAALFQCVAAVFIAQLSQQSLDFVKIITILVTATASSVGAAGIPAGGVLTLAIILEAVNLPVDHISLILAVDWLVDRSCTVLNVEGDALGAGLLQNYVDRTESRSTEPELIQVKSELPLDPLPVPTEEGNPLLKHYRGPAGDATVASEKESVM

A549 [10] = assay: Inhibition of AKT/mTORC signalling in human A549 cells assessed as decrease in AKT phosphorylation level at 5 to 10 uM measured after 24 hrs by Western blot analysis; assay type: cell-based; settings: dose 5-10 µM
[11] = MRT (0 to infinity) in Sprague-Dawley rat at 10 mg/kg, ip incubated for 24 hrs by LC-MS/MS analysis; assay type: ADME, organism-based; settings: in vivo
A549 [12] = assay: Induction of autophagy in human A549 cells assessed as downregulation of ERK expression at 5 to 10 uM measured after 24 hrs by Western blot analysis; assay type: functional, cell-based; settings: dose 5-10 µM
A549 [13] = assay: Induction of apoptosis in human A549 cells measured after 24 hrs by annexin-V/PI staining based flow cytometry analysis; assay type: functional, cell-based; settings: dose 5-10 µM
[14] = Half life in Sprague-Dawley rat at 10 mg/kg, ip incubated for 24 hrs by LC-MS/MS analysis; assay type: ADME, organism-based; settings: in vivo
[15] = target: T3, Neutral amino acid transporter B(0) (Homo sapiens) (UniProt Q15758); assay: Inhibition of ASCT2 in HEK293 cells assessed as reduction in [13C]-Gln uptake at 50 uM relative to control; assay type: cell-based
T3 sequence (whole entry): T2 sequence (Q15758 whole entry)

A549 [16] = assay: Induction of autophagy in human A549 cells assessed as downregulation of p70S6K level at 5 to 10 uM measured after 24 hrs by Western blot analysis; assay type: functional, cell-based; settings: dose 5-10 µM
[17] = target: Large neutral amino acids transporter small subunit 1 (Homo sapiens) (UniProt Q01650); assay: Inhibition of LAT1 (unknown origin) overexpressed in HEK293 cells assessed as reduction in [13C]-Gln uptake preincubated for 5 mins followed by substrate addition and measured after 15 mins; assay type: cell-based; settings: time 20.0 min
NSCLC [18] = assay: Antiproliferative activity against human NSCLC cells cultured as H1975 organoids assessed as cell viability incubated for 96 hrs by Celltiter-glo viability assay; assay type: functional, cell-based
NSCLC [19] = assay: Antiproliferative activity against human NSCLC cells cultured as 2862 organoids assessed as cell viability incubated for 96 hrs by Celltiter-glo viability assay; assay type: functional, cell-based
A549 [20] = assay: Induction of apoptosis in human A549 cells assessed as caspase 9 activation at 5 to 10 uM incubated for 24 hrs by Western blot analysis; assay type: functional, cell-based; settings: dose 5-10 µM
[21] = Toxicity in BALB/c nude mouse assessed as effect on body weight at 25 to 50 mg/kg, ip measured daily for 3 weeks; assay type: organism-based; settings: in vivo, 504 h, dose 25-50 mg/kg
A549 [22] = assay: Inhibition of AKT/mTORC signalling in human A549 cells assessed as decrease in p70S6K level at 5 to 10 uM measured after 24 hrs by Western blot analysis; assay type: cell-based; settings: dose 5-10 µM
Cell membrane = assay: Induction of mitochondrial membrane potential loss in human A549 cells assessed as […] aggregates at 5 uM incubated for 24 hrs by JC-1 staining based flow cytometry analysis (reference value: 93.8%); assay type: cell membranes
[23] = AUC (0 to infinity) in Sprague-Dawley rat at 10 mg/kg, ip incubated for 24 hrs by LC-MS/MS analysis; assay type: ADME, organism-based; settings: in vivo
[24] = Apparent clearance in Sprague-Dawley rat at 10 mg/kg, ip incubated for 24 hrs by LC-MS/MS analysis; assay type: ADME, organism-based; settings: in vivo
A549 [25] = assay: Inhibition of Gln uptake in human A549 cells assessed as reduction in succinate level incubated for 24 hrs by LC-MS/MS analysis; assay type: functional, cell-based

Sequence of Large neutral amino acids transporter small subunit 1 (Homo sapiens) (Q01650 whole entry): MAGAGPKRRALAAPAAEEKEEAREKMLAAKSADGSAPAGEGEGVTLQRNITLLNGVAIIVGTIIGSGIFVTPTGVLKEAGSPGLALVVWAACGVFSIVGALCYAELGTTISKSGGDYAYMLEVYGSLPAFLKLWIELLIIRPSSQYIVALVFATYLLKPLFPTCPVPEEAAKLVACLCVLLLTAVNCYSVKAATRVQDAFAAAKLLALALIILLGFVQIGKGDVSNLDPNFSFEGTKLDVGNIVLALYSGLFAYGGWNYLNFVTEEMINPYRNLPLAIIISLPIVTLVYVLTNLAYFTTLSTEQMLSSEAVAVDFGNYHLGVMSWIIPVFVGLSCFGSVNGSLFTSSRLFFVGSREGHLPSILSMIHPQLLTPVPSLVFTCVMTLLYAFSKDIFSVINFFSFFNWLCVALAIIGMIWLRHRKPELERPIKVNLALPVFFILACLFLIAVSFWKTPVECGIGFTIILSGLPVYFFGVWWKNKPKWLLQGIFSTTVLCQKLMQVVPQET

inhibition [1]	IC50 (A549 [5]) [µM]	Tmax [6] [h]	IC50 [9] [µM]	MRT inf [11] [h]	half-life [14] [h]	inhibition [15] [%]	inhibition [17]	Compound	Activity (A549 [2])	inhibition (A549 [3])	IC50 (NSCLC [4]) [µM]	Activity (A549 [7])	Activity [8]	inhibition (A549 [10])	Activity (A549 [12])	Activity (A549 [13])	Activity (A549 [16])	IC50 (NSCLC [18]) [µM]	IC50 (NSCLC [19]) [µM]	Activity (A549 [20])	also measured
inactive	10.3	1.17	5.6	13.7	9.41	93.2	inactive	N[C@@H](CCN(Cc1ccccc1OCC#Cc1ccc(Cl)cc1)Cc1ccccc1OCC#Cc1ccc(Cl)cc1)C(=O)O	Active	Active	22.4	Active	Toxic	Active	Active	Dose-Dependent Effect	Active	8.45	5.21	Active	Activity [21]: Non-Toxic; inhibition (A549 [22]): Active; Activity (Cell membrane): 87.8%; AUC(0-inf) [23]: 2820 ng·h/mL; CL/F [24]: 60.5 mL/min/kg; inhibition (A549 [25]): Active
inactive	5.83	5.33	19.2	20.7	19.4	98.3	inactive	CC(C)(C)c1ccc(OCC#Cc2ccccc2)c(CN(CC[C@H](N)C(=O)O)Cc2cc(C(C)(C)C)ccc2OCC#Cc2ccccc2)c1	Active	Active	2.36	Active	Toxic	Active	Active	Dose-Dependent Effect	Active	1.09	2.85	Active	Activity [21]: Non-Toxic; inhibition (A549 [22]): Active; Activity (Cell membrane): 76.1%; AUC(0-inf) [23]: 14500 ng·h/mL; CL/F [24]: 12 mL/min/kg; inhibition (A549 [25]): Active
